Entries after “also recorded” stand apart in the source; their conditions may differ. Where two headings read alike, the source gives them in different places.
How the values were obtained:
Type in all cases: cell-based
human LAT3 [1] = biological target: T1, human LAT3 (Homo sapiens, UniProt O75387); test: Inhibition of 14C-leucine uptake by Xenopus oocytes injected with human LAT3 cRNA
T1 construct: An expression plasmid vector pSPORT1 containing cDNA of human LAT3 was cleaved by a restriction enzyme NotI, and cRNA; expressed in transfected cells; host or cells: Xenopus laevis oocytes injected with cRNA
T1 sequence (O75387 1-559): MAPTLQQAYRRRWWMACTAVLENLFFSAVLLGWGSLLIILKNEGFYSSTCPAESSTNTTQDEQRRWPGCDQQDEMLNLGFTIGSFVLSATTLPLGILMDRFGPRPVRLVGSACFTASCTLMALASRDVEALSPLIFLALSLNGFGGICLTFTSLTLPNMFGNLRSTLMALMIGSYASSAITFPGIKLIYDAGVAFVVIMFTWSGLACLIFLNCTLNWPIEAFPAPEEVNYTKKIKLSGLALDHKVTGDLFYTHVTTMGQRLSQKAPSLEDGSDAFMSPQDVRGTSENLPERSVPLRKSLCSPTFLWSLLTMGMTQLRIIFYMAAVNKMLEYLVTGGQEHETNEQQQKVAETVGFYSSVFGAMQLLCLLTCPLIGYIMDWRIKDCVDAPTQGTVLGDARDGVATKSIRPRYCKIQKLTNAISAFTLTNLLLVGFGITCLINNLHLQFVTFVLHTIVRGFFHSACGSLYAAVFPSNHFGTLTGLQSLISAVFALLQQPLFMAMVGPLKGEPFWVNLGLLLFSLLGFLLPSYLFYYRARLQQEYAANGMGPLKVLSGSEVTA

mouse LAT4 [2] = biological target: T2, mouse LAT4 (Mus musculus, UniProt Q8CGA3, K402E/P237S); test: Inhibition of 14C-leucine uptake by oocytes injected with mouse LAT4 cRNA; details: 14C-leucine 100 μM, 10 mM unlabeled compound, Na+-free uptake solution, Xenopus oocytes
T2 construct: An expression plasmid vector pcDNA 3.1(+) containing cDNA of mouse LAT4 was cleaved by a restriction enzyme XbaI; expressed in transfected cells; host or cells: Xenopus laevis oocytes injected with cRNA (from pcDNA3.1(+), IMAGE clone 2235970)
T2 sequence (Q8CGA3 whole entry P237S/K402E): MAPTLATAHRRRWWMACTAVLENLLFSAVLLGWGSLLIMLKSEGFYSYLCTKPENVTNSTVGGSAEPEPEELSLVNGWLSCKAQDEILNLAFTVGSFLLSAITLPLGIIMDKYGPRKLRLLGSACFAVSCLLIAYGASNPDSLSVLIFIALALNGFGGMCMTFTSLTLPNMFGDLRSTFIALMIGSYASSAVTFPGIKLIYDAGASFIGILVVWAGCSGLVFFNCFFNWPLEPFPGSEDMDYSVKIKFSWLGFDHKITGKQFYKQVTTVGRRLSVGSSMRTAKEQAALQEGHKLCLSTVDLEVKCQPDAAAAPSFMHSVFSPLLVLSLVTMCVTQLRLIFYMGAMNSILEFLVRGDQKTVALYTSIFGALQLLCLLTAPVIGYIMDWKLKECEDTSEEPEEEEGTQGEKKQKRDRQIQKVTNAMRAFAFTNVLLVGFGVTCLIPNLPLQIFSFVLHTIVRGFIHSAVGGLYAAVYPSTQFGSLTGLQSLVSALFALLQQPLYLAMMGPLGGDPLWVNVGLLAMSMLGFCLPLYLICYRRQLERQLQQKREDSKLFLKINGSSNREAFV
Description: In this regard, uptake of ^14C-leucine (100 μM) into the oocytes was measured in the presence or the absence of 10 mM of various compounds (unlabeled) in the Na^+-free uptake solution.

human LAT3 [3] = biological target: T1, human LAT3; test: Uptake of radiolabeled amino acids by Xenopus oocytes injected with human LAT3 cRNA; details: 14C-labeled substrate in place of 14C-leucine, Na+-free uptake solution, 10 minutes
Description: The substrate uptake by the injected oocytes using leucine as a substrate was carried out according to the method described by Kanai et al. (Kanai and Hediger, Nature, Vol. 360, 467-471 (1992)), as follows. The oocytes was cultured for 30 minutes in the Na^+-free uptake solution (100 mM of choline chloride, 2 mM of potassium chloride, 1.8 mM of calcium chloride, 1 mM of magnesium chloride, 5 mM of HEPES, pH 7.4) using ^14C-leucine (100 μM) as a substrate, and uptake rate of the substrate was measured by counting radioactivity in the cell.
The oocytes was injected with 25 ng of human LAT3 gene cRNA to be expressed thereby, and cultured for 3 days.
The experiment of the leucine uptake was carried out as follows according to the above described method in Example 1 (1). That is, the oocytes injected with the cRNA of the human LAT3 gene or water as a control were cultured for 10 minutes in Na^+-free uptake solution containing ^14C-leucine (100 μM) (refer to Example 1 (1)), and measured uptake of radioactivity into the cells.
The leucine uptake was conducted at the leucin concentrations of 1, 3, 10, 30, 60, 100, 200, 400, 1000, 2000 and 3000 μM using the oocytes injected with cRNA of the human LAT3 gene according to the above-described method in Example 3 (1). […] In addition, it was clarified that the leucine transport mediated by LAT3 is composed of high affinity component and low affinity component (FIG. 6, inserted figure).
An uptake experiment of various amino acids and amino acid analogs was carried out using the oocytes injected with cRNA of the human LAT3 gene according to the above-described method in Example 3 (1), provided that various radiolabeled amino acids were utilized in place of the ^14C-leucine.

mouse LAT4 [4] = biological target: T2, mouse LAT4; test: Uptake of radiolabeled amino acids by Xenopus oocytes injected with mouse LAT4 cRNA; details: 14C-labeled substrate in place of 14C-leucine
Description: The oocytes was injected with 25 ng of cRNA of the mouse LAT4 gene to be expressed thereby, and cultured for 3 days.
An experiment of leucine uptake was carried out as follows according to the above-described method in Example 3 (1). That is, the oocytes injected with cRNA of the mouse LAT4 gene or water as a control were cultured for 10 minutes in the Na^+-free uptake solution containing […] (100 μM) (refer to Example 3 (1)), and measured the uptake of radioactivity into the cells.
The leucine uptake was conducted at the leucin concentrations of 0.01, 0.03, 0.1, 0.3, 1, 3 and 10 mM, using the oocytes injected with cRNA of the mouse LAT4 gene according to the above-described method in Example 3 (1). […] In addition, it was clarified that the leucine transport mediated by LAT4 is composed of a high affinity component and a low affinity component, just like the leucin uptake mediated by LAT3.
An uptake experiment of various amino acids and amino acid analogs was carried out using the oocytes injected with cRNA of the mouse LAT4 gene according to the above-described method in Example 3 (1). In this regard, in place of ^14C-leucine, various radiolabeled amino acids were utilized.

human LAT3 [5] = biological target: T1, human LAT3; test: Influence of N-ethylmaleimide on leucine uptake by oocytes expressing human LAT3; details: pretreatment with 5 mM for 15 minutes; 14C-L-leucine 100 μM, 10 minutes
Description: Each of the oocytes injected with cRNA of the human LAT3 gene, injected with cRNA of the human LAT3 gene and cRNA of 4F2hc gene, or injected with water as a control was cultured for 10 minutes in the Na^+-free uptake solution containing ^14C-L-leucine (100 μM) (refer to Example 3 (2)), and uptake of radioactivity into the oocytes was measured according to the method described in Example 3 (1). In this regard, influences of pretreatment with 5 mM of N-ethylmaleimide for 15 minutes, and the presence or absence of 5 mM of N-ethylmaleimide in the uptake solution on the ^14C-leucine uptake were investigated.

LAT1 = test: Influence of N-ethylmaleimide on leucine uptake mediated by LAT1; details: 5 mM; 14C-L-leucine 100 μM, 10 minutes
[6] = 14C-leucine 100 μM, 10 mM unlabeled compound, Na+-free uptake solution, 10 minutes, Xenopus oocytes

Row | SMILES | inhibitory effect on the LAT3 mediated 14C-leucine uptake (human LAT3 [1]; [6]) | inhibitory effect on the LAT4 mediated 14C-leucine uptake (mouse LAT4 [2]) | also measured
1 | CC(C)CC(C)N (centres unmarked) [1,3-dimethyl-n-butylamine] | significant inhibitory activity |  | 
2 | NC1(C(=O)O)CC2CCC1C2 (centres unmarked) [BCH, 2-aminobicyclo-(2,2,1)-heptane-2-carboxylic acid] | strong inhibition | strong inhibition | 
3 | N[C@H](Cc1c[nH]cn1)C(=O)O [D-histidine] |  | relatively strong inhibitory effect | 
4 | CC(C)C[C@@H](N)C(=O)O [D-leucine] | relatively strong inhibitory effect | relatively strong inhibitory effect | uptake of radiolabeled substrate into oocytes expressing human LAT3 (human LAT3 [3]): significant uptake; uptake of radiolabeled substrate into oocytes expressing mouse LAT4 (mouse LAT4 [4]): significant uptake
5 | CSCC[C@@H](N)C(=O)O [D-methionine] |  | relatively strong inhibitory effect | 
6 | CC(C)CCN [Isopentylamine, isopentylamine] | significant inhibitory activity |  | 
7 | CC[C@H](C)[C@H](N)C(=O)O [L-isoleucine] | strong cis-inhibitory effect | strong cis-inhibitory effect | uptake of radiolabeled substrate into oocytes expressing human LAT3 (human LAT3 [3]): a large amount of uptake; uptake of radiolabeled substrate into oocytes expressing mouse LAT4 (mouse LAT4 [4]): a large amount of uptake
8 | CSCC[C@H](N)C(=O)O [L-methionine] |  | strong cis-inhibitory effect | inhibitory effect on the LAT3 mediated 14C-leucine uptake (human LAT3 [1]): strong cis-inhibitory effect; uptake of radiolabeled substrate into oocytes expressing human LAT3 (human LAT3 [3]): small but significant uptake; uptake of radiolabeled substrate into oocytes expressing mouse LAT4 (mouse LAT4 [4]): a large amount of uptake
9 | N[C@@H](Cc1ccccc1)C(=O)O [L-phenylalanine] | strong cis-inhibitory effect | strong cis-inhibitory effect | uptake of radiolabeled substrate into oocytes expressing human LAT3 (human LAT3 [3]): a large amount of uptake; uptake of radiolabeled substrate into oocytes expressing mouse LAT4 (mouse LAT4 [4]): a large amount of uptake
10 | O=C(O)[C@@H]1CCCN1 [L-proline] | did not affect | did not affect | uptake of radiolabeled substrate into oocytes expressing human LAT3 (human LAT3 [3]): small but significant uptake
11 | CC(C)[C@H](N)C(=O)O [L-valine] | strong cis-inhibitory effect | strong cis-inhibitory effect | uptake of radiolabeled substrate into oocytes expressing human LAT3 (human LAT3 [3]): a large amount of uptake; uptake of radiolabeled substrate into oocytes expressing mouse LAT4 (mouse LAT4 [4]): a large amount of uptake
12 | CC(=O)N[C@@H](CC(C)C)C(=O)O [N-acetyl-leucine, N-acetyl-L-leucine] | significant inhibitory activity |  | 
13 | CCN1C(=O)C=CC1=O [N-ethylmaleimide] |  |  | effect on 14C-L-leucine uptake mediated by human LAT3 (human LAT3 [5]): completely abolished; also recorded: inhibited; effect on 14C-L-leucine uptake mediated by LAT1 (LAT1): did not affect
14 | N=C(N)NCCC[C@H](N)C(=O)O [arginine] | did not affect | did not affect | 
15 | N[C@@H](CC(=O)O)C(=O)O [aspartic acid] | did not affect | did not affect | 
16 | N[C@@H](CCC(=O)O)C(=O)O [glutamic acid] | did not affect | did not affect | 
17 | COc1ccc2c(c1)c(CC(=O)O)c(C)n2C(=O)c1ccc(Cl)cc1 [indomethacin] | strong inhibitory effect |  | 
18 | CC(C)CN [isobutylamine] | significant inhibitory activity |  | 
19 | COC(=O)[C@@H](N)CC(C)C [leucine methylester, L-leucine-methylester] | significant inhibitory activity |  | 
20 | CC(C)C[C@H](N)CO [leucinol, L-leucinol] | strongly inhibited |  | 
21 | NCCCC[C@H](N)C(=O)O [lysine] | did not affect | did not affect | 
22 | C[C@@H]1Cc2c(Cl)cc(C(=O)N[C@@H](Cc3ccccc3)C(=O)O)c(O)c2C(=O)O1 [ochratoxin A] | strong inhibitory effect; also recorded: strongly inhibited |  | 
23 | N[C@H](CO)Cc1ccccc1 [phenylalaninol, L-phenylalaninol] | relatively strong inhibitory effects; also recorded: strongly inhibited |  | 
24 | NCCc1ccccc1 [phenylethylamine, 2-phenylethylamine] | significant inhibitory activity |  | 
25 | CCCN(CCC)S(=O)(=O)c1ccc(C(=O)O)cc1 [probenecid] | weak but significant inhibitory effects |  | 
26 | O=C(O)c1ccccc1O [salicylic acid] | weak but significant inhibitory effects |  | 
27 | CC(C)[C@H](N)CO [valinol, L-valinol] | relatively strong inhibitory effects |  | 

Reference: patent publication US7553642B2, “Branched neutral amino acid transporters acting as single molecule” (Human Cell Systems, Inc., priority 2003, dated 2009)
